Measured values from patent US20180077929A1, “METHODS AND SYSTEMS FOR TREATING MEDICAL DEVICES AND FLUIDS” (priority 2016, published 2018).
Marks after values point to notes of the source that are not given here.

Experiment: Kinetics of removal of LPS with different agitation techniques and stearate salts
Type: biochemical
Details: for Endotoxin Detected: 5 mL SRW, baseline 1,502 EU; for Percent (%) Removed: SRW baseline 1,502 EU
Method: 5 mL of SRW was added to each of the tubes. Each solution was tested for endotoxin removal after agitation based on with sonication, vortexing, or test tube rolling. Sonication samples were sonicated at each indicated time interval for 30 seconds at a magnitude of 30. Vortex samples were vortexed at each indicated time interval for 30 seconds at 2500 RPM. Rolling samples were constantly rolling at 10 rpm. The samples were tested on the MCS for endotoxin at 1 minute, 20 minutes, 40 minutes, 60 minutes, and 80 minutes.

Compound | Endotoxin Detected (Rolling, 1 minute) | Percent (%) Removed (Rolling, 1 minute) | Endotoxin Detected (Rolling, 20 minutes) | Percent (%) Removed (Rolling, 20 minutes) | Endotoxin Detected (Rolling, 40 minutes) | Percent (%) Removed (Rolling, 40 minutes) | Endotoxin Detected (Rolling, 60 minutes) | Percent (%) Removed (Rolling, 60 minutes) | Endotoxin Detected (Rolling, 80 minutes) | Percent (%) Removed (Rolling, 80 minutes) | Endotoxin Detected (Sonication, 1 minute) | Percent (%) Removed (Sonication, 1 minute) | Endotoxin Detected (Sonication, 20 minutes) | Percent (%) Removed (Sonication, 20 minutes) | Endotoxin Detected (Sonication, 40 minutes) | Percent (%) Removed (Sonication, 40 minutes) | Endotoxin Detected (Sonication, 60 minutes) | Percent (%) Removed (Sonication, 60 minutes) | Endotoxin Detected (Sonication, 80 minutes) | Percent (%) Removed (Sonication, 80 minutes) | other results
Magnesium Stearate | 1,060 EU | 29.4% | 1,120 EU | 25.4% | 1,060 EU | 29.4% | 1,120 EU | 25.4% | 1,190 EU | 20.8% | 743 EU | 50.5% | 716 EU | 52.3% | 824 EU | 45.1% | 884 EU | 41.1% | 703 EU | 53.2% | Endotoxin Detected (Vortexing, 1 minute): 884 EU; Percent (%) Removed (Vortexing, 1 minute): 41.1%; Endotoxin Detected (Vortexing, 20 minutes): 1,000 EU; Percent (%) Removed (Vortexing, 20 minutes): 33.4%; Endotoxin Detected (Vortexing, 40 minutes): 901 EU; Percent (%) Removed (Vortexing, 40 minutes): 40%; Endotoxin Detected (Vortexing, 60 minutes): 958 EU; Percent (%) Removed (Vortexing, 60 minutes): 36.2%; Endotoxin Detected (Vortexing, 80 minutes): 1,060 EU; Percent (%) Removed (Vortexing, 80 minutes): 29.4%
CCCCCCCCCCCCCCCCCC(=O)[O-].[Al+3].[OH-].[OH-] [Aluminum Monostearate] | 221* EU | 85.3% | 1,260 EU | 16.1% | 1,240 EU | 17.4% | 672 EU | 55.3% | 1,220 EU | 18.8% | 626 EU | 58.3% | 406 EU | 73% | 375 EU | 75% | 434 EU | 71.1% | 291 EU | 80.6% | Endotoxin Detected (Vortexing, 1 minute): 817 EU; Percent (%) Removed (Vortexing, 1 minute): 45.6%; Endotoxin Detected (Vortexing, 20 minutes): 849 EU; Percent (%) Removed (Vortexing, 20 minutes): 43.5%; Endotoxin Detected (Vortexing, 40 minutes): 786 EU; Percent (%) Removed (Vortexing, 40 minutes): 47.7%; Endotoxin Detected (Vortexing, 60 minutes): 801 EU; Percent (%) Removed (Vortexing, 60 minutes): 46.7%; Endotoxin Detected (Vortexing, 80 minutes): 757 EU; Percent (%) Removed (Vortexing, 80 minutes): 49.6%
